From patent US9878991B2, “TRPV1 antagonists including dihydroxy substituent and uses thereof” (Purdue Pharma L.P., priority 2007, dated 2018)

How the values were obtained:
[1] = Plasma concentration after administration to an animal; type: in vivo
[2] = test system: TRPV1 receptor-mediated pain; test: Capsaicin-induced eye wipe test; type: in vivo; settings: rat; for eye wipe value: pre-administration value 24
Procedure: Each experiment uses rats weighing between 200-260 g at the start of the experiment. The rats are group-housed and have free access to food and water at all times, except prior to oral administration of a compound of formula I when food is removed for 16 hours before dosing. A control group acts as a comparison to rats treated with a compound of formula I. The control group is administered the carrier for the compound of formula I. The volume of carrier administered to the control group is the same as the volume of carrier and compound of formula I administered to the test group.
To assess the effect of compounds of formula I on TRPV1 receptor-mediated pain, the capsaicin-induced eye wipe test is used (N. R. Gavva et al., “AMG 9810 [(E)-3-(4-t-Butylphenyl)-N-(2,3-dihydrobenzo[b][1,4]dioxin-6-yl)acrylamide], a Novel Vanilloid Receptor 1 (TRPV1) Antagonist with Antihyperalgesic Properties”, J. Pharmacol. Exp. Ther. 313:474-484 (2005)). The eye wipe test is a reliable high-throughput test of the effect of TRPV1 antagonists. Rats are given a single injection of 1, 3, 10 or 30 mg/kg of either a compound of formula I; 30 mg/kg of a control selected from Celebrex, indomethacin or naproxen; or carrier. At 1, 3 or 5 hours after drug administration, 3 μL of a 100 μM capsaicin solution (in 10% EtOH/PBS) is instilled in one eye of each animal with a pipette. The number of forelimb movements (touching or wiping of the capsaicin-treated eye) are counted during a 2 minute period following instillation of capsaicin into the eye.

Structure (SMILES) | maximum plasma concentration relative to the maximum for compound 200 [1] | eye wipe value ([2]; 1 hour after administration) | decrease of eye wipes relative to pre-administration value ([2]; 3 hours after administration) | eye wipe value ([2]; 3 hours after administration) | decrease of eye wipes relative to pre-administration value ([2]; 5 hours after administration) | eye wipe value ([2]; 5 hours after administration)
CC(O)(CO)c1cnc(C2=CCN(C(=O)Nc3ccc(C(F)(F)F)cc3)CC2)c(Cl)c1 (stereo not shown) [Compound R6] | 5.3 times |  |  |  |  | 
O=C(Nc1ccc(C(F)(F)F)cc1)N1CCC(F)(c2ncc([C@H](O)CO)cc2Cl)CC1 [Compound N1, (S)-4-(3-chloro-5-(1,2-dihydroxyethyl)pyridin-2-yl)-4-fluoro-N-(4-(trifluoromethyl)phenyl)piperidine-1-carboxamide] |  | 3 | 96% | 1 | 92% | 2
O=C(Nc1ccc(C(F)(F)F)cc1)N1CC=C(c2ncc([C@H](O)CO)cc2Cl)CC1 [Compound Z1, (S)-3-Chloro-5-(1,2-dihydroxy-ethyl)-3′,6′-dihydro-2′H-[2,4′]bipyridinyl-1′-carboxylic acid (4-trifluoromethyl-phenyl)amide] | 2.5 times |  |  |  |  | 
